Measured values from article PMC9181543, “Lysosomal Exocytosis of Olivacine on the Way to Explain Drug Resistance in Cancer Cells” (International Journal of Molecular Sciences, 2022).
Several values for one entry are separate records, joined by “and”; a condition that tells them apart may be missing. Equal values may be shown once.

Tests used:
[1] = system: A549, MCF-7, LoVo, LoVo/DX, CCRF/CEM, and NHDF cells; assay: MTT assay, whole cell line panel; type: cell-based; conditions: Homo sapiens, range across all cell lines, read-out: IC50 range over the cell lines
Procedure: The anticancer activity of tested compounds was assessed on five human cell lines selected from the panel of tumor cell lines recommended by the National Cancer Institute: A495 (lung carcinoma), CCRF/CEM (acute lymphoblastic leukemia), LoVo and LoVo/DX (two types of colorectal: non-resistant and resistant to doxorubicin), and MCF-7 (breast adenocarcinoma). In addition, the NHDF cell line (normal human dermal fibroblasts) was used to estimate cytotoxicity to noncancer cells. The A549, CCRF/CEM, LoVo, LoVo/DX, and MCF-7 cells were obtained from ECACC, and NHDF cells from LONZA, Belgium. The A549 and MCF-7 cells were grown in EMEM medium, CCRF/CEM cells in RPMI-1640, LoVo and LoVo/DX cells in DMEM/F-12, and NHDF cells in DMEM without phenol red. The cells were seeded in […] in the biological assay, as recommended by the National Cancer Institute. All culture media were supplemented with L-glutamine, penicillin, streptomycin, and 10% fetal bovine serum (FBS). […]
An assessment of the mitochondrial cell activity after applying tested compounds was carried out using the test MTT assay, recommended in the ISO 10993-5:2009 standard. […] After 30 min, absorbance at 570 nm in Victor2 microplate reader (PerkinElmer). Cell viability was determined as the IC50 ratio, i.e., the concentration of the compound in which the viability was reduced by half compared with the control.

[2] = system: NHDF cells; assay: Cell morphology, microscopic observation, NHDF; type: cell-based, human; conditions: NHDF normal cells, 24 h incubation
Procedure: (§1) Olivacine, similar to ellipticine, is a compound with fluorescent properties. Therefore, by analyzing the intensity of fluorescence over time, it is possible to assess the cellular pharmacokinetics of the compounds. At the same time, cell morphology was also assessed. The cells were seeded into a 96-well plate and cultured for 24 h (37 °C, 5% CO2) for cell adhesion to the surface and regeneration. […] The culture plate was placed under a Juli microscope, and the device with the plate inside was put in the CO2 incubator. Pictures were taken every 15 min for 24 h. We have prepared software that allowed us to measure the fluorescence intensity of the indicated cells. Fluorescence analysis was performed for all images (every 15 min) during a period of rapid change in fluorescence intensity and less often at a later period when it stabilized. Three independent experiments were carried out, always analyzing 50 selected cells.

[3] = system: A549 cells; assay: Cell morphology, microscopic observation, A549; type: cell-based, human; conditions: for cell morphology: 24 h incubation
Procedure: as §1

[4] = system: CCRF/CEM cells; design: method as in PMID 11755121; conditions: 48 h exposure; cited from earlier work
[5] = system: CCRF/CEM cells; design: method as in PMID 24898668; conditions: cited from earlier work
[6] = system: Saos-2 cells; design: method as in PMID 12881704; conditions: cited from earlier work
[7] = system: pancreatic cancer cells; design: method as in PMID 10737712; conditions: 1 μM; cited from earlier work
[8] = system: T24 cell; design: method as in PMID 28138703; conditions: T24 cell study; cited from earlier work
[9] = system: MCF-7 cells; design: method as in PMID 11755121; conditions: 48 h exposure; cited from earlier work

| IC50 [1] | cell morphology ([2]; 5 μM) | SMILES | cell morphology ([2]; 2 μM) | cell morphology ([2]; 20 μM) | cell morphology ([3]; 2 μM) | cell morphology ([3]; 20 μM) | concentration at which growth inhibition is visible ([3]; microscopic observation, 24 h) | IC50 [4] | cell cycle effect [5] | concentration at which apoptosis was induced [6] | cell cycle effect [7] | cell cycle effect [8] | IC50 [9] |
| --- | --- | --- | --- | --- | --- | --- | --- | --- | --- | --- | --- | --- | --- |
| 12 to 26 µM | normal | Cc1nccc2c(C)c3[nH]c4ccccc4c3cc12 [Olivacine, 1,5-dimethyl-6H-pyrido[4,3-b]carbazole] | did not negatively affect cell morphology | only a few fibroblast cells have been disintegrated | Cytosol degradation | completely degraded | 2 µM | – | – | – | – | – | – |
| – | – | Cc1c2ccncc2c(C)c2c1[nH]c1ccccc12 [Ellipticine] | – | – | – | – | – | 4.7 ± 0.48 µM | stop the cell cycle in the G0/G1 phase | 8 µM and 10 µM | arrest cell cycle progression in both G1 and G2/M phases | stops the cell cycle in the G2/M phase | 1.25 ± 0.13 µM |
